Assay [1] deals with T1, LTC4 receptor (Homo sapiens, UniProt Q9NS75).
T1 construct: expressed in transfected cells; whole cells or membrane fraction
T1 sequence (Q9NS75 1-346): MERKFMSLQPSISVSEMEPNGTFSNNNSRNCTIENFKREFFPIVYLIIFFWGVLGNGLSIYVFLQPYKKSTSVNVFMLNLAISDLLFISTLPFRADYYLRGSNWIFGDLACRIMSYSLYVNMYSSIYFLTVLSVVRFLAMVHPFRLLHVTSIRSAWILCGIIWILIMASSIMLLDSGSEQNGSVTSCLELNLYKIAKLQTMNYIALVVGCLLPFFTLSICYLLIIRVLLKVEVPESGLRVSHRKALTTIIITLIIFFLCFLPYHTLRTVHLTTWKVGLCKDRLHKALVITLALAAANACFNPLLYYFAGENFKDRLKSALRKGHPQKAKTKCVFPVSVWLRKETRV
Briefly: Inhibition of increase of intracellular Ca++ concentration elicited by LTC4 or LTD4, CHO cells stably expressing LTC4 receptors. Type of assay: cell-based. The protocol:
After culturing for 24 hours, medium was discarded and 100 μl/well of Hanks BSS containing 4 μM Fluo-3, AM (Molecular Probe), 0.004% pluronic acid, 1% FBS, 20 mM HEPES, and 2.5 mM probenecid was added, and incubated at 37° C. for 1 hour.
The changes of intracellular Ca^++ concentration were measured using FLIPR with the same condition as in Example 6.

Assay [2] relates to human coronary arterial smooth muscle cells. As to the kind of experiment: Increase of intracellular Ca++ concentration by LTC4 in coronary arterial smooth muscle cells. Type of assay: cell-based. The protocol:
The medium was discarded, and by adding 100 μl/well of Hanks BSS containing 4 μM Fluo-3, AM (Molecular Probe), 0.004% pluronic acid, 1% FBS, 20 mM HEPES, and 2.5 mM probenecid, the cells were incubated for 1 hour at 37° C. […] It is well known that the increase of intracellular Ca^++ concentration in blood vessel smooth muscle cells causes vasoconstriction (Bolton, T. B., et al. Physiol. Rev. (1979) 59, 606–718).

In assay [3] the target is T1, LTC4 receptor. Briefly: Inhibition of [3H]-LTC4 binding, membrane fraction of CHO cells stably expressing LTC4 receptor. The following applies: 0.5×10^−9 M [3H]-LTC4; 15 μg CHO membrane fraction; 1 hour, room temperature. On the procedure:
Micro-scintillator was added to the glass filter and the radioactivity was measured by a liquid scintillation counter. […] Compound A was produced as follows.

Assay [4] deals with T1, LTC4 receptor. Briefly: Cell migration of CHO cells expressing LTC4 receptors elicited by LTC4. Type of assay: cell-based. The settings on record: compound in upper layer, 3 nM LTC4 in lower layer.
Protocol: After culturing for 4 hours in a CO2 incubator at 37° C., the frame filter was fixed in methanol and stained with Diff-Quik staining kit (Kokusai-Shiyaku). The upper surface (the side onto which the cells were inoculated) of the filter was wiped, and after air drying, absorbance at 595 nm was measured with the plate reader (Molecular Devices).
For assay [5], the target named is T2, pig LTC4 receptor (Sus scrofa, UniProt Q95N03).
T2 construct: expressed in transfected cells
T2 sequence (Q95N03 1-345): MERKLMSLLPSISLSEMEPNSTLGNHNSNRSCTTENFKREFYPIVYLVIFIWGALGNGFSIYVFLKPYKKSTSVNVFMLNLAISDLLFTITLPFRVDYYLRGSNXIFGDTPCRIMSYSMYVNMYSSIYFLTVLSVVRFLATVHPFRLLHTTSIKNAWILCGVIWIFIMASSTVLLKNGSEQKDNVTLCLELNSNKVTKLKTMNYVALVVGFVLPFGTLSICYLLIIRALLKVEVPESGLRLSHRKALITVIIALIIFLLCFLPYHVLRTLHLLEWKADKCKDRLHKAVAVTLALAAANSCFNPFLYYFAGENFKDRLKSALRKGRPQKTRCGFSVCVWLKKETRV
Briefly: [3H]-LTC4 saturation binding, membrane fraction of COS-1 cells transfected with pEF-BOS-pig LTC4 receptor. On the procedure:
2×10^6 COS-1 cells were inoculated to a […] culture flask and cultured for 36 hours, and then, 50 μg of pEF-BOS-PSEC0146 or pEF-BOS (empty vector) was transfected using FuGENE6 (Boeringer Mannheim) Cells cultured for 36 hours following gene transfection were recovered and washed, then suspended in 20 mM Tris-HCl (pH 7.4), 5 mM EDTA and homogenized with a Polytron homogenizer. After ultracentrifugation, the homogenized cells were suspended in 50 mM HEPES (pH 7.4), 40 mM MgCl2, 1 mM EGTA as a membrane fraction. 0.5 to 14×10^−9 M of [^3H]-LTC4 (Daiichi Pure Chemicals) at final concentration was added to 5 μg of the membrane fraction, and incubated 1 hour at room temperature in 250 μl solution comprising 50 mM HEPES (pH 7.4), 40 mM MgCl2, 1 mM EGTA, 5 mM L-Serine, 10 mM Borate, 2 mM L-Cystein, and 2 mM L-Glycine. Thereafter, the membrane fraction was recovered on a glass filter using a cell harvester. Micro-scintillator was added to the glass filter and the total binding to the membrane fraction was measured by using a liquid scintillation counter. […]
First, to express the protein encoded by the cDNA, the cDNA was obtained by PCR using pig genomic DNA as the template. The nucleotide sequence of primers required for PCR was designed based on the nucleotide sequence information determined in Example 15. […]

Another assay deals with T3, rat LTC4 receptor (Rattus norvegicus, UniProt Q924T9).
T3 construct: expressed in transfected cells
T3 sequence (Q924T9 1-309): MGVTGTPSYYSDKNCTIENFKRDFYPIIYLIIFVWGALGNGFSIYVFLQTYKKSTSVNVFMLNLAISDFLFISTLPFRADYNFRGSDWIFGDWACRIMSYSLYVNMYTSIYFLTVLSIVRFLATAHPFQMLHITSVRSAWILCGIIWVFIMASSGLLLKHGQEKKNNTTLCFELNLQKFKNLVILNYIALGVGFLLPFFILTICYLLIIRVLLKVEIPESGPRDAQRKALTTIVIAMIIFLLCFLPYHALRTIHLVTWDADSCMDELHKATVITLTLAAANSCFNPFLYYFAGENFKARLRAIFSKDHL
Briefly: Increase of intracellular Ca++ concentration, HEK293-EBNA cells transfected with pEF-BOS-rat LTC4 receptor. The settings on record: Logistic regression. Type of assay: cell-based. The protocol:
(§1) 2.5×10^4 cells per well of HEK293-EBNA cells were inoculated to 96 well Black/clear bottom plate, collagen type I coated (BECTON DICKINSON). After culturing for 24 hours, 40 ng per well of pEF-BOS-PSECO 146 or pEF-BOS (empty vector) were transfected into the cells using FuGENE6 (Boeringer Mannheim). 24 hours after gene transfection, the medium was discarded, 100 μl per well of DMEM containing 4 μM Fluo-3, AM (Molecular Probe), 0.004% pluronic acid, and 10% FBS was added and incubated for 1 hour at 37° C. Following incubation, cells were washed four times with Hanks BSS containing 20 mM HEPES (GIBCO), then 100 μl per well of Hanks BSS containing 20 mM HEPES was added. The time course of the changes of intracellular Ca^++ concentration was measured using FLIPR (Molecular Device).
This plasmid was designated as pEF-BOS-rat LTC4 receptor.
The changes of intracellular Ca^++ concentration were measured using HEK293-EBNA cells under the same condition as in Example 5.

Assay [6] concerns the target T2, pig LTC4 receptor. As to the kind of experiment: Increase of intracellular Ca++ concentration, HEK293-EBNA cells transfected with pEF-BOS-pig LTC4 receptor. Type of assay: cell-based. The settings on record: Logistic regression. On the procedure:
as §1
Further, the changes of intracellular Ca^++ concentration were measured using HEK293-EBNA cells under the same condition as in Example 5.

In general, IC50 refers to the concentration at which inhibition is half-maximal. A lower IC50 goes with greater potency. As a reminder, the Kd is the concentration at which binding is half-saturated. In general, EC50 refers to the concentration needed to bring the measured effect to its halfway point. A low value points to an effect from little substance.

For the compound `CCCn1c(-c2ccc3c(S(=O)(=O)Nc4onc(C)c4C)cccc3c2)nc2ccccc21` [Compound A, N-(3,4-dimethyl-5-isoxazolyl)-6-(1-propyl-1H-benzimidazol-2-yl) -1-naphthalenesulfonamide], the 50% inhibitory concentration (IC50) at LTC4 receptor [1] came to 2300 nM; at LTC4 receptor [3], 1200 nM. For the same compound, the “inhibition of increase of intracellular Ca++ concentration elicited by LTD4” value at LTC4 receptor [1] (CHO stable cells, LTD4 stimulus) was “inhibited dose-dependently”. In addition, the “inhibition of increase of intracellular Ca++ concentration by LTC4” value in assay [2] (5 min pre-treatment) is reported as “inhibit dose-dependently”. Besides, the “inhibition of cell migration by LTC4” value against LTC4 receptor [4] is “inhibits dose-dependently”.

In the case of `CCCCC/C=C\C\C=C/C=C/C=C/[C@@H](SC[C@H](NC(=O)CC[C@H](N)C(=O)O)C(=O)NCC(=O)O)[C@@H](O)CCCC(=O)O` [LTC4, leukotriene C4], the “maximum binding (Bmax)” value on pig LTC4 receptor [5] (Scatchard analysis, COS-1 membrane fraction) was found to be 0.25 pmol/mg protein. For the same compound, the Kd on pig LTC4 receptor [5] (read-out: dissociation constant of LTC4 binding (Kd), Scatchard analysis, COS-1 membrane fraction) was determined as 2.89 nM. Further, in assay [2] (10^−6 to 10^−9 M LTC4), the “increase of intracellular Ca++ concentration” value is “induce increase of the intracellular Ca^++ concentration in a dose-dependent manner”. For the same compound, the EC50 on rat LTC4 receptor was 19 nM; on pig LTC4 receptor [6], 5 nM.

Turning to `CCCCC/C=C\C\C=C/C=C/C=C/[C@@H](SC[C@H](N)C(=O)NCC(=O)O)[C@@H](O)CCCC(=O)O` [LTD4, leukotriene D4], the half-maximal effective concentration (EC50) at rat LTC4 receptor was 7.7 nM; at pig LTC4 receptor [6], 3.3 nM.

For the origin of these results see patent US7217800B2, “Peptide leukotriene receptor” (Astellas Pharma Inc., priority 1999, dated 2007).
